Converted amounts (≈) assume the structure as drawn. Where two headings read alike, the source gives them in different places.
Tests used:
Solubility in PBS = type: physicochemical
Summary of the method: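 HPLC quantitation of peptide remaining in the PBS supernatant after ultracentrifugation, referenced to a 50 μM solution in DMSO.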

[1] = target: T1, full-length beta-Catenin (Uniprot ID P35222) (Homo sapiens, UniProt P35222); assay: Fluorescence polarization IC50 (beta-catenin / 5FAM-TCF4 10-53 competition); type: binding
T1 construct: 10 nM full-length beta-Catenin (Uniprot ID P35222)
T1 sequence (P35222 1-781): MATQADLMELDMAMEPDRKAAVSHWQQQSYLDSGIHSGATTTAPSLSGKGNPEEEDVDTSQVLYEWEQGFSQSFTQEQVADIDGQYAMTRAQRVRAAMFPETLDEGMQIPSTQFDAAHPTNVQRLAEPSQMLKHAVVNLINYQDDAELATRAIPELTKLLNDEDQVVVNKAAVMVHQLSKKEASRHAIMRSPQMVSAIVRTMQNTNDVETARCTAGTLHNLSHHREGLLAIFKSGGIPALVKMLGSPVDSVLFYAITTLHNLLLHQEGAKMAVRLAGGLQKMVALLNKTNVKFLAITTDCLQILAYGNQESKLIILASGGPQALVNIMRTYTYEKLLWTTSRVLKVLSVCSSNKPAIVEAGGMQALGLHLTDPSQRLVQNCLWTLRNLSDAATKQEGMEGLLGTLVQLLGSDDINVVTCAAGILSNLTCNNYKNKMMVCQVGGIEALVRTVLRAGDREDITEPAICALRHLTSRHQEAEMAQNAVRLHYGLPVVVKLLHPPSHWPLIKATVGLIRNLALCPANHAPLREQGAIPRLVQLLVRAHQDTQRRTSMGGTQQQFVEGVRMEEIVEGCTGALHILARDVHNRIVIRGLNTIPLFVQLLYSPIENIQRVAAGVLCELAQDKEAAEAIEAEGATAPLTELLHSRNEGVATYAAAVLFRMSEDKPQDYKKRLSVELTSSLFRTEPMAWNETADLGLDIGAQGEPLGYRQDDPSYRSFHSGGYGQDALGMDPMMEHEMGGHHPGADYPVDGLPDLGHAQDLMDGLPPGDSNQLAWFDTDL

[2] = fluorescence polarization, read-out: beta-Catenin FP IC50
[3] = fluorescence polarization, beta-catenin, read-out: FP EC50

| Compound | Solubility (Solubility in PBS; Solubility (uM)) | IC50 [1, 2] | Solubility (Solubility in PBS) | IC50 ([1]; beta-Catenin FP IC50, fluorescence polarization) | IC50 [1, 3] |
| --- | --- | --- | --- | --- | --- |
| CC(=O)N1CCC[C@]12CC=CCCCC1(CCCC=CCCCOC(=O)N3CC[C@@](C(=O)N[C@@H](Cc4ccccc4Cl)C(=O)N[C@@H](Cc4csc5ccccc45)C(=O)N[C@H](C(N)=O)[C@@H](C)O)(C3)NC(=O)[C@H](CO)NC(=O)[C@H](Cc3ccccc3)NC(=O)[C@H](C)NC(=O)[C@H](C)NC(=O)[C@H](CC(=O)O)NC(=O)[C@H](CC(=O)O)NC1=O)NC(=O)[C@H](CC1CCCCC1)NC(=O)[C@H](CC(=O)O)NC2=O (stereo partly drawn) [I-1135, Ac-PL3-Asp-Cha-B5-Asp-Asp-Ala-Ala-Phe-Ser-PyrS2-2C1F-BztA-Thr-NH2] | 39 µM (≈ 74.8 µg/mL) | 0.02 µM |  |  |  |
| CC(=O)N1CCC[C@]12CC=CCCCC1(CCCC=CCCCOC(=O)N3CC[C@@](C(=O)N[C@@H](Cc4ccccc4Cl)C(=O)N[C@@H](Cc4csc5ccccc45)C(=O)N[C@@H](CC(C)C)C(N)=O)(C3)NC(=O)[C@H](CO)NC(=O)[C@H](Cc3ccccc3)NC(=O)[C@H](C)NC(=O)[C@H](C)NC(=O)[C@H](CC(=O)O)NC(=O)[C@H](CC(=O)O)NC1=O)NC(=O)[C@H](Cc1ccccc1)NC(=O)[C@H](CC(=O)O)NC2=O (stereo partly drawn) [I-1144, Ac-PL3-Asp-Phe-B5-Asp-Asp-Ala-Ala-Phe-Ser-PyrS2-2C1F-BztA-Leu-NH2] | 32 µM (≈ 61.6 µg/mL) | 0.028 µM |  |  |  |
| CC(=O)N1CCC[C@]12CC=CCCCC1(CCCC=CCCCOC(=O)N3CC[C@@](C(=O)N[C@@H](Cc4ccccc4Cl)C(=O)N[C@@H](Cc4csc5ccccc45)C(=O)N[C@@H](CCC(N)=O)C(N)=O)(C3)NC(=O)[C@H](CO)NC(=O)[C@H](Cc3ccccc3)NC(=O)[C@H](CC(C)C)NC(=O)[C@H](CC(C)C)NC(=O)[C@H](CC(=O)O)NC(=O)[C@H](CC(=O)O)NC1=O)NC(=O)[C@H](CC1CCCCC1)NC(=O)[C@H](CC(=O)O)NC2=O (stereo partly drawn) [I-1149, Ac-PL3-Asp-Cha-B5-Asp-Asp-Leu-Leu-Phe-Ser-PyrS2-2C1F-BztA-Gln-NH2] |  | 0.07 µM | 10 µM (≈ 20.3 µg/mL) |  |  |
| CC(=O)N1CCC[C@]12CC=CCCCC1(CCCC=CCCCOC(=O)N3CC[C@@](C(=O)N[C@@H](Cc4ccccc4Cl)C(=O)N[C@@H](Cc4csc5ccccc45)C(=O)N[C@@H](CO)C(N)=O)(C3)NC(=O)[C@H]([C@@H](C)O)NC(=O)[C@H](Cc3ccccc3)NC(=O)[C@H](C)NC(=O)[C@H](CC(C)C)NC(=O)[C@H](CC(=O)O)NC(=O)[C@H](CC(=O)O)NC1=O)NC(=O)[C@H](Cc1ccccc1)NC(=O)[C@H](CC(=O)O)NC2=O (stereo partly drawn) [I-1156, Ac-PL3-Asp-Phe-B5-Asp-Asp-Leu-Ala-Phe-Thr-PyrS2-2C1F-BztA-Ser-NH2] | 48 µM (≈ 93.8 µg/mL) | 0.014 µM |  |  |  |
| CC(=O)N1CCC[C@]12CC=CCCCC1(CCCC=CCCCOC(=O)N3CC[C@@](C(=O)N[C@@H](Cc4ccccc4Cl)C(=O)N[C@@H](Cc4csc5ccccc45)C(=O)N[C@@H](CO)C(N)=O)(C3)NC(=O)[C@H]([C@@H](C)O)NC(=O)[C@H](Cc3ccccc3)NC(=O)[C@H](CC(C)C)NC(=O)[C@H](CC(C)C)NC(=O)[C@H](CC(=O)O)NC(=O)[C@H](CC(=O)O)NC1=O)NC(=O)[C@H](Cc1ccccc1)NC(=O)[C@H](CC(=O)O)NC2=O (stereo partly drawn) [I-1158, Ac-PL3-Asp-Phe-B5-Asp-Asp-Leu-Leu-Phe-Thr-PyrS2-2C1F-BztA-Ser-NH2] |  |  | 29 µM (≈ 57.9 µg/mL) | 0.168 µM |  |
| CC(=O)N1CCC[C@]12CC=CCCCC1(CCCC=CCCCOC(=O)N3CC[C@@](C(=O)N[C@@H](Cc4ccccc4Cl)C(=O)N[C@@H](Cc4csc5ccccc45)C(=O)N[C@@H](CCC(N)=O)C(N)=O)(C3)NC(=O)[C@H](CC(C)C)NC(=O)[C@H](Cc3ccccc3)NC(=O)[C@H](C)NC(=O)[C@H](C)NC(=O)[C@H]([C@@H](C)O)NC(=O)[C@H](CC(=O)O)NC1=O)NC(=O)[C@H](CC(C)(C)C)NC(=O)[C@H](CC(=O)O)NC2=O (stereo partly drawn) [I-1169, Ac-PL3-Asp-Npg-B5-Asp-Thr-Ala-Ala-Phe-Leu-PyrS2-2C1F-BztA-Gln-NH2] |  | 0.159 µM | 10 µM (≈ 19.3 µg/mL) |  |  |
| CC(=O)N1CCC[C@]12CC=CCCCC1(CCCC=CCCCOC(=O)N3CC[C@@](C(=O)N[C@@H](Cc4ccsc4)C(=O)N[C@@H](Cc4csc5ccccc45)C(=O)N[C@@H](CCC(N)=O)C(N)=O)(C3)NC(=O)[C@H](CC(C)C)NC(=O)[C@H](Cc3ccccc3)NC(=O)[C@H](C)NC(=O)[C@H](C)NC(=O)[C@H]([C@@H](C)O)NC(=O)[C@H](CC(=O)O)NC1=O)NC(=O)[C@H](CC1CCCCC1)NC(=O)[C@H](CC(=O)O)NC2=O (stereo partly drawn) [I-1174, Ac-PL3-Asp-Cha-B5-Asp-Thr-Ala-Ala-Phe-Leu-PyrS2-3Thi-BztA-Gln-NH2] |  | 0.043 µM | 10 µM (≈ 19.3 µg/mL) |  |  |
| CC(=O)N1CCC[C@]12CC=CCCCC1(CCCC=CCCCOC(=O)N3CC[C@@](C(=O)N[C@@H](Cc4ccccc4Cl)C(=O)N[C@@H](Cc4csc5ccccc45)C(=O)N[C@@H](CCC(N)=O)C(N)=O)(C3)NC(=O)[C@H](CC(C)C)NC(=O)[C@H](Cc3ccccc3)NC(=O)[C@H](C)NC(=O)[C@H](C)NC(=O)[C@H]([C@@H](C)O)NC(=O)[C@H](CC(=O)O)NC1=O)NC(=O)[C@H](CC1CCCCC1)NC(=O)[C@H](CC(=O)O)NC2=O (stereo partly drawn) [I-1176, Ac-PL3-Asp-Cha-B5-Asp-Thr-Ala-Ala-Phe-Leu-PyrS2-2C1F-BztA-Gln-NH2] |  | 0.169 µM | 10 µM (≈ 19.6 µg/mL) |  |  |
| CC(=O)N1CCC[C@]12CC=CCCCC1(CCCC=CCCCOC(=O)N3CC[C@@](C(=O)N[C@@H](Cc4ccsc4)C(=O)N[C@@H](Cc4csc5ccccc45)C(=O)N[C@@H](CCC(N)=O)C(N)=O)(C3)NC(=O)[C@H](CC(C)C)NC(=O)[C@H](Cc3ccccc3)NC(=O)C(C)(C)NC(=O)C(C)(C)NC(=O)[C@H](CC(=O)O)NC(=O)[C@H](CC(=O)O)NC1=O)NC(=O)[C@H](CC(C)(C)C)NC(=O)[C@H](CC(=O)O)NC2=O (stereo partly drawn) [I-1179, Ac-PL3-Asp-Npg-B5-Asp-Asp-Aib-Aib-Phe-Leu-PyrS2-3Thi-BztA-Gln-NH2] |  | 0.346 µM | 44 µM (≈ 85.6 µg/mL) |  | 0.346 µM |
| CC(=O)N1CCC[C@]12CC=CCCCC1(CCCC=CCCCOC(=O)N3CC[C@@](C(=O)N[C@@H](Cc4ccsc4)C(=O)N[C@@H](Cc4csc5ccccc45)C(=O)N[C@@H](CCC(N)=O)C(N)=O)(C3)NC(=O)[C@H](CC(C)C)NC(=O)[C@H](Cc3ccccc3)NC(=O)C(C)(C)NC(=O)C(C)(C)NC(=O)[C@H](CC(=O)O)NC(=O)[C@H](CC(=O)O)NC1=O)NC(=O)[C@H](CC(C)(C)C)NC(=O)[C@H](CC(=O)O)NC2=O (stereo partly drawn) [I-1180, Ac-PL3-Asp-Npg-B5-Asp-Asp-Aib-Aib-Phe-Leu-PyrS2-3Thi-BztA-Gln-NH2] |  | 0.087 µM | 31 µM (≈ 60.3 µg/mL) |  | 0.087 µM |
| CC(=O)N1CCC[C@H]1C(=O)N[C@@H](CC(=O)O)C(=O)N[C@@H](CC(C)(C)C)C(=O)N[C@]1(C)CCCC=CCCCOC(=O)N2CC[C@@](C(=O)N[C@@H](Cc3ccsc3)C(=O)N[C@@H](Cc3csc4ccccc34)C(=O)N[C@@H](CCC(N)=O)C(N)=O)(C2)NC(=O)[C@H](CC(N)=O)NC(=O)[C@H](Cc2ccccc2)NC(=O)[C@H](C)NC(=O)[C@H](C)NC(=O)[C@H](CC(=O)O)NC(=O)[C@H](CC(=O)O)NC1=O [I-1182, Ac-Pro-Asp-Npg-R5-Asp-Asp-Ala-Ala-Phe-Asn-PyrS2-3Thi-BztA-Gln-NH2] | 48 µM (≈ 88.9 µg/mL) | 0.144 µM |  |  |  |
| CC(=O)N1CCC[C@H]1C(=O)N[C@@H](CC(=O)O)C(=O)N[C@@H](CC(C)(C)C)C(=O)N[C@]1(C)CCCC=CCCCOC(=O)N2CC[C@@](C(=O)N[C@@H](Cc3ccccc3Cl)C(=O)N[C@@H](Cc3csc4ccccc34)C(=O)N[C@@H](CCC(N)=O)C(N)=O)(C2)NC(=O)[C@H](CC(N)=O)NC(=O)[C@H](Cc2ccccc2)NC(=O)[C@H](C)NC(=O)[C@H](C)NC(=O)[C@H](CC(=O)O)NC(=O)[C@H](CC(=O)O)NC1=O [I-1183, Ac-Pro-Asp-Npg-R5-Asp-Asp-Ala-Ala-Phe-Asn-PyrS2-2C1F-BztA-Gln-NH2] |  | 0.409 µM | 50 µM (≈ 94 µg/mL) |  |  |
| CC(=O)N1CCC[C@]12CC=CCCCC1(CCCC=CCCCOC(=O)N3CC[C@@](C(=O)N[C@@H](Cc4ccccc4)C(=O)N[C@@H](Cc4ccc5ccccc5c4)C(=O)N[C@@H](CCC(N)=O)C(N)=O)(C3)NC(=O)[C@H](CC(C)C)NC(=O)[C@H](Cc3ccccc3)NC(=O)[C@H](C)NC(=O)[C@H](CCCCNC(C)C)NC(=O)[C@H]([C@@H](C)O)NC(=O)[C@H](CC(N)=O)NC1=O)NC(=O)[C@H](C)NC(=O)[C@H](CC(=O)O)NC2=O (stereo partly drawn) [I-1381, Ac-PL3-Asp-Ala-B5-Asn-Thr-iPrLys-Ala-Phe-Leu-PyrS2-Phe-2NapA-Gln-NH2] |  |  | 10 µM (≈ 19.3 µg/mL) |  |  |
| CC(=O)N1CCC[C@]12CC=CCCCC1(CCCC=CCCCOC(=O)N3CC[C@@](C(=O)N[C@@H](Cc4ccccc4)C(=O)N[C@@H](Cc4csc5ccccc45)C(=O)N[C@H](C(N)=O)[C@@H](C)O)(C3)NC(=O)[C@H](CC(C)C)NC(=O)[C@H](Cc3ccccc3)NC(=O)[C@H](C)NC(=O)[C@H](CCCCNC(C)C)NC(=O)[C@H]([C@@H](C)O)NC(=O)[C@H](CC(=O)O)NC1=O)NC(=O)[C@H](C)NC(=O)[C@H](CC(N)=O)NC2=O (stereo partly drawn) [I-1384, Ac-PL3-Asn-Ala-B5-Asp-Thr-iPrLys-Ala-Phe-Leu-PyrS2-Phe-BztA-Thr-NH2] |  |  | 10 µM (≈ 19.1 µg/mL) |  |  |
